Data as given in patent US20260345742A1, “SYNTHETIC SURFACTANTS FOR INHIBITING CORONAVIRUS INFECTION” (priority 2022, published 2026).
pKd: −log10 of the molar value. Like-named read-outs stand apart in the source and are kept apart here. Ends that are not written are not given here.

How the values were obtained:
[1] = Aqueous solution solubility; type: physicochemical; conditions: stated as the reason for biotinylation
SARS-CoV-2 RBD = SARS-CoV-2 RBD (Severe acute respiratory syndrome coronavirus 2, UniProt P0DTC2); assay: SPR binding (Biacore T200) of SARS-CoV-2 RBD to chip-linked biotinylated B-YL
Protocol: FIG. 3. Surface plasmon resonance (SPR) sensorgrams of rbCovid-19-RBD protein construct and human ACE2 receptor binding to immobilized B-YL peptide. The B-YL peptide was biotinylated to facilitate attachment to the Biacore chip as described in Methodology. Solutions of 1 μM recombinant protein in HBS-EP buffer (10 mM Hepes, pH 7.4, 150 mM NaCl, 3 mM EDTA, 0.005% surfactant P20) were then flowed over the respective chip-linked peptides. The concentration dependent binding of the viral RBD construct (A) and the human ACE-2 receptor (B) to the B-YL lung surfactant peptide are shown with the SPR response indicated in relative response units (RU) on the graph's Y-axis.
One of the best in vitro determinations of the binding of proteins and peptides to one another is by surface plasmon resonance (SPR). This technique allows the direct measurement of the binding of a peptide or protein by attaching one protein to a sensor chip surface and flowing a solution containing a second protein over the surface. The binding affinities derived from such measurements are very similar to those observed in vivo.
The binding affinity of the B-YL lung surfactant peptide to the coronavirus recombinant spike protein construct of SARS-CoV-2 (viral spike protein amino acid sequence) that included the Receptor Binding Domain (RBD) was measured with SPR spectroscopy using a Biacore T200 system (GE Healthcare Bio-Sciences Corp, Piscataway, NJ 08855).
B-YL peptide binding to the recombinant SARS-CoV-2 RBD domain dissolved in a series of seven concentrations (1,000, 500, 250, 125, 62.5, 31.25 and 0 nM) in the analyte and was determined from the sensorgrams, in which arbitrary response units (RUS) are recorded as a function of time.
In Table 1, association and dissociation kinetic rate constants (kon, koff) and equilibrium dissociation constants (KD) were calculated from surface plasmon resonance (SPR) kinetic measurements for aqueous SARS-CoV-2 RBD expressed protein flowing past B-YL surfactant peptide on the Biacore chip. The recombinant SARS-CoV-2 RBD protein was dissolved in running buffer and was flowed past the sensor chip with a BiocoreT200 system (Methods). Kinetic rate constants and equilibrium dissociation constants were determined from curve fitting analysis of SPR traccs.
The binding affinities of the B-YL lung surfactant peptide to the Angiotensin-Converting Enzyme 2 (ACE-2) receptor recombinant construct (human amino acid sequence) and the coronavirus recombinant spike protein construct of Covid-19 (viral spike protein amino acid sequence) that included the Receptor Binding Domain (RBD) were measured with surface plasmon resonance (SPR) spectroscopy using a Biacore T200 system (GE Healthcare Bio-Sciences Corp, Piscataway, NJ 08855).
The SPR binding study was accomplished by associating the ligand (B-YL peptide) immobilized on the SPR sensor surface, and the solute containing the ACE-2 or the Covid-19 protein construct was then flowed past the sensor linked molecule. The binding of the solute to the sensor surface ligand results in an evanescent sensor response, is measured in Response Units (RU) that are proportional to the bound mass.
In Table 3, Association and dissociation kinetic rate constants (kon, koff) and equilibrium dissociation constants (KD) were calculated from surface plasmon resonance (SPR) kinetic measurements for aqueous RBD, and ACE2 flowing past BYL attached to a Biacore chip. Proteins were dissolved in running buffer (10 mM HEPES, 150 mM NaCl, 3 mM EDTA, 0.005% Surfactant P20, pH 7.4) and were flowed past biotin linked B-YL peptide construct on a CSM sensor chip with a Biacore system (Methodology). Kinetic rate constants and equilibrium dissociation constants were determined from curve fitting analysis of SPR traces.

ACE2 = ACE2 (Homo sapiens, UniProt Q9BYF1); assay: SPR binding (Biacore T200) of ACE2 to chip-linked biotinylated B-YL
Sequence of ACE2 (Q9BYF1 18-805): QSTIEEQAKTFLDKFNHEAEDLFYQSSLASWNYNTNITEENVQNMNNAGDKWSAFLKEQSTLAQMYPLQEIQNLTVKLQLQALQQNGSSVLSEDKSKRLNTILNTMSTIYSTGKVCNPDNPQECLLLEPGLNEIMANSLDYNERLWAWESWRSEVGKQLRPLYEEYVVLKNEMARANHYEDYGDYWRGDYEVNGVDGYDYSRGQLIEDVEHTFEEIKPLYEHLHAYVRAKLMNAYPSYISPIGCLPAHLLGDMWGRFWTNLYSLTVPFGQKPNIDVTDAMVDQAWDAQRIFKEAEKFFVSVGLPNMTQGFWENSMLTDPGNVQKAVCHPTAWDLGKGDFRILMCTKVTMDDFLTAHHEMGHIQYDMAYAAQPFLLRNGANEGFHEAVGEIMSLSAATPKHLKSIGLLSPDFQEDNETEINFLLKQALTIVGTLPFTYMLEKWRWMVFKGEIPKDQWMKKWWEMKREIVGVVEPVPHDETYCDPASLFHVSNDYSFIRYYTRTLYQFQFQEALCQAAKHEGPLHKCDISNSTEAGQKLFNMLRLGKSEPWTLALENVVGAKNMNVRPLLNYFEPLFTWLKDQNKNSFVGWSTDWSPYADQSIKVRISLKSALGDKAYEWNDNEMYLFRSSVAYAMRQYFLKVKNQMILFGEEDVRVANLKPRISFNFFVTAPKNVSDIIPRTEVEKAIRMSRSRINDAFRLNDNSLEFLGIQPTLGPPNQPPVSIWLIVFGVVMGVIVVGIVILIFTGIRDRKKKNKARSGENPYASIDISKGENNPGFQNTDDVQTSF

FPIPLPYYWLYRALIKRIQALIPKGGRLLPQLVYRLVLRYS [B-YL]
aqueous solution solubility [1]: limited aqueous solution solubility | koff (SARS-CoV-2 RBD): 5.08 × 10^−02 1/s | pKd (SARS-CoV-2 RBD; RBD(wt) - B-YL, expt. data - SPR (Table 2)): 4.24 | pKd (SARS-CoV-2 RBD; Table 1, aqueous SARS-CoV-2-RBD over chip-associated biotinylated B-YL, HBS-EP pH 7.4, 37 °C, KD=koff/kon): 4.24 | pKd (SARS-CoV-2 RBD; Table 3, aqueous RBD over chip-linked B-YL, pH 7.4, 37 °C, KD=koff/kon): 4.24 | koff (SARS-CoV-2 RBD; pH 7.4): 0.0508 s⁻¹ | kon (SARS-CoV-2 RBD; pH 7.4, Table 1, aqueous SARS-CoV-2-RBD over chip-associated biotinylated B-YL, HBS-EP pH 7.4, 37 °C): 890 M⁻¹ s⁻¹ | kon (SARS-CoV-2 RBD; pH 7.4, Table 3, aqueous RBD over chip-linked B-YL, pH 7.4, 37 °C): 892 M⁻¹ s⁻¹ | pKd (ACE2): 5.36 | koff (ACE2; pH 7.4): 0.013 s⁻¹ | kon (ACE2; pH 7.4): 2980 M⁻¹ s⁻¹
